Test results: ChEMBL document CHEMBL4177563, “The medicinal chemistry of Chikungunya virus” (Bioorg Med Chem, 2017)
Values after ≈ are worked out from the molar mass of the structure shown.

Columns and labels:
[1] = Cytotoxicity against African green monkey Vero cells assessed as reduction in cell viability; assay type: cell-based; details: chlorocebus sabaeus
[2] = system: Chikungunya virus; assay: Antiviral activity against Chikungunya virus infected in African green monkey Vero cells; assay type: functional, organism-based
[3] = Selectivity index, ratio of CC50 for human MRC5 cells to IC50 for Chikungunya virus LR2006 OPY1; assay type: toxicity; details: read-out: Ratio CC50/IC50
[4] = Cytotoxicity against human MRC5 cells assessed as reduction in cell viability after 48 hrs by neutral red staining-based microscopic analysis
[5] = system: Chikungunya virus; assay: Antiviral activity against Chikungunya virus LR2006 OPY1 infected in human MRC5 cells after 30 mins by indirect immunofluorescence analysis; assay type: functional, organism-based; details: LR2006 OPY1, MRC5, 0.5 h
[6] = system: Chikungunya virus; assay: Antiviral activity against Chikungunya virus LR2006 OPY1 infected in human MRC5 cells after 48 hrs by indirect immunofluorescence analysis; assay type: functional, organism-based; details: LR2006 OPY1, MRC5, 48 h
[7] = system: Chikungunya virus; assay: Antiviral activity against Chikungunya virus LR2006 OPY1 infected in human MRC5 cells after 60 mins by indirect immunofluorescence analysis; assay type: functional, organism-based; details: LR2006 OPY1, MRC5, 1 h
[8] = Selectivity index, ratio of CC50 for African green monkey Vero cells to IC50 for Chikungunya virus LR2006 OPY1; assay type: toxicity; details: read-out: Ratio CC50/IC50
[9] = Cytotoxicity against African green monkey Vero cells assessed as reduction in cell viability after 18 hrs by neutral red staining-based microscopic analysis; details: chlorocebus sabaeus
[10] = system: Aedes aegypti; assay: Larvicidal activity against Aedes aegypti Paea assessed as mortality at 5 ug/ml after 24 hrs relative to control; assay type: functional
[11] = system: Aedes aegypti; assay: Larvicidal activity against Aedes aegypti Paea assessed as mortality at 20 ug/ml after 24 hrs relative to control; assay type: functional
[12] = system: Aedes aegypti; assay: Larvicidal activity against Aedes aegypti Paea assessed as mortality at 15 ug/ml after 24 hrs relative to control; assay type: functional
[13] = system: Aedes aegypti; assay: Induction of oviposition deterrent activity in Aedes aegypti assessed as effective repellency at 10 ug/ml after 24 hrs by stereomicroscopic analysis relative to control; assay type: functional
[14] = system: Aedes aegypti; assay: Induction of oviposition deterrent activity in Aedes aegypti assessed as effective repellency at 40 ug/ml after 24 hrs by stereomicroscopic analysis relative to control; assay type: functional
[15] = system: Aedes aegypti; assay: Induction of oviposition deterrent activity in Aedes aegypti assessed as effective repellency at 50 ug/ml after 24 hrs by stereomicroscopic analysis relative to control; assay type: functional
[16] = system: Aedes aegypti; assay: Induction of oviposition deterrent activity in Aedes aegypti assessed as effective repellency at 20 ug/ml after 24 hrs by stereomicroscopic analysis relative to control; assay type: functional
[17] = system: Aedes aegypti; assay: Induction of oviposition deterrent activity in Aedes aegypti assessed as effective repellency at 30 ug/ml after 24 hrs by stereomicroscopic analysis relative to control; assay type: functional
[18] = system: Aedes aegypti; assay: Larvicidal activity against Aedes aegypti Paea assessed as mortality at 10 ug/ml after 24 hrs relative to control; assay type: functional
[19] = system: Aedes aegypti; assay: Larvicidal activity against Aedes aegypti Paea assessed as mortality at 25 ug/ml after 24 hrs relative to control; assay type: functional
[20] = system: Aedes aegypti; assay: Larvicidal activity against Aedes aegypti Paea assessed as mortality after 24 hrs; assay type: functional, organism-based
[21] = system: Chikungunya virus; assay: Antiviral activity against Chikungunya virus S-27 assessed as viral titer interferon loading; assay type: functional
[22] = system: Aedes aegypti; assay: Larvicidal activity against Aedes aegypti Paea assessed as mortality at 21 ug/ml after 24 hrs relative to control; assay type: functional
[23] = system: Aedes aegypti; assay: Larvicidal activity against Aedes aegypti Paea assessed as mortality at 28 ug/ml after 24 hrs relative to control; assay type: functional
[24] = system: Aedes aegypti; assay: Larvicidal activity against Aedes aegypti Paea assessed as mortality at 14 ug/ml after 24 hrs relative to control; assay type: functional
[25] = system: Aedes aegypti; assay: Larvicidal activity against Aedes aegypti Paea assessed as mortality at 35 ug/ml after 24 hrs relative to control; assay type: functional
[26] = system: Aedes aegypti; assay: Induction of oviposition deterrent activity in Aedes aegypti assessed as effective repellency at 75 ug/ml after 24 hrs by stereomicroscopic analysis relative to control; assay type: functional
[27] = system: Aedes aegypti; assay: Induction of oviposition deterrent activity in Aedes aegypti assessed as effective repellency at 15 ug/ml after 24 hrs by stereomicroscopic analysis relative to control; assay type: functional
[28] = system: Aedes aegypti; assay: Induction of oviposition deterrent activity in Aedes aegypti assessed as effective repellency at 45 ug/ml after 24 hrs by stereomicroscopic analysis relative to control; assay type: functional
[29] = system: Aedes aegypti; assay: Larvicidal activity against Aedes aegypti Paea assessed as mortality at 7 ug/ml after 24 hrs relative to control; assay type: functional
[30] = system: Aedes aegypti; assay: Induction of oviposition deterrent activity in Aedes aegypti assessed as effective repellency at 60 ug/ml after 24 hrs by stereomicroscopic analysis relative to control; assay type: functional
[31] = system: Chikungunya virus; assay: Antiviral activity against Chikungunya virus 899 infected in African green monkey BGM cells assessed as reduction in viral infectious progeny after 48 hrs by titration assay; assay type: functional, organism-based; details: Chikungunya virus, 899, BGM
[32] = system: Chikungunya virus; assay: Antiviral activity against Chikungunya virus 899 assessed as inhibition of virus-induced cytopathogenic effect measured on day 5 post infection by MTS/PMS based microscopic analysis; assay type: functional, organism-based; details: Chikungunya virus, 899, 120 h
[33] = system: Chikungunya virus; assay: Antiviral activity against Chikungunya virus SGP011 infected in African green monkey BGM cells after 24 hrs by luciferase reporter gene assay; assay type: functional, organism-based
[34] = system: Chikungunya virus; assay: Antiviral activity against Chikungunya virus CNR20235 infected in buffalo green monkey BGM cells after 24 hrs by luciferase reporter gene assay; assay type: functional, organism-based
[35] = system: Chikungunya virus; assay: Antiviral activity against Chikungunya virus LR2006 OPY1 infected in African green monkey BGM cells after 24 hrs by luciferase reporter gene assay; assay type: functional, organism-based
[36] = system: Chikungunya virus; assay: Antiviral activity against Chikungunya virus SGP011 by qRT-PCR analysis; assay type: functional, organism-based
[37] = system: Chikungunya virus; assay: Antiviral activity against Chikungunya virus SGP011 infected in African green monkey BGM cells assessed as reduction in viral infectious progeny after 48 hrs by titration assay; assay type: functional, organism-based
[38] = system: Chikungunya virus; assay: Antiviral activity against Chikungunya virus 899 by qRT-PCR analysis; assay type: functional, organism-based
[39] = system: Chikungunya virus; assay: Antiviral activity against Chikungunya virus infected in HEK293T cells assessed as reduction in infectious virus particle production by luciferase reporter gene assay; assay type: functional, organism-based; details: HEK-293T

In the case of `CC/C(C)=C/C(=O)O[C@@H]1[C@H](C)C[C@H]2O[C@]1(O)[C@@H](O)[C@H]1CC[C@H](O1)C(C)(C)/C=C/[C@H](C)C2=O`, the CC50 [1] is reported as 60.9 µg/mL (≈ 135 µM) and the EC50 [2] is reported as < 0.8 µg/mL.

For `CCOC(=O)c1c(CSc2ccccc2)n(C)c2cc(Br)c(O)c(CN(C)C)c12` [UMIFENOVIR], the selectivity ratio [3] was 36, the CC50 at 48 h [4] was 376 µM and the IC50 [5] was 23.1 µM. It also gave an IC50 [6] of 12.2 µM, an IC50 [7] of 31.7 µM and a selectivity ratio [8] of 28. The CC50 at 18 h [9] was 680 µM.

Work on `CC(C)=CCCC(C)c1ccc(C)cc1` (stereo not drawn) yielded an Activity [10] of 24.5%, an Activity [11] of 84.2% and an Activity [12] of 62.7%. The Activity [13] was 70.28%, the Activity [14] was 86% and the Activity [15] was 89.99%. For the same molecule, the Activity [16] was 75.62%, the Activity [17] was 80.87% and the Activity [18] was 45.3%. The Activity [19] was 97.1%, the IC50 [20] was 11.2 µg/mL (≈ 55.5 µM) and the IC90 [20] was 22 µg/mL (≈ 109 µM).

With `Sc1ncnc2nc[nH]c12` [MERCAPTOPURINE ANHYDROUS] the Activity [21] was 47 - 67 U/ml.

For `CC(C)=CCCC(C)[C@@]1(O)CC=C(C)CC1` (stereo partly drawn), the Activity [22] was 63.2%, the Activity [23] was 84.7% and the Activity [24] was 42.6%. For the same molecule, the Activity [25] was 98.1%, the Activity [26] was 88.99% and the Activity [17] was 77.03%. It also gave an IC50 [20] of 15.8 µg/mL (≈ 71.2 µM), an IC90 [20] of 30.3 µg/mL (≈ 136 µM) and an Activity [27] of 72.3%. It also gave an Activity [28] of 81.13%, an Activity [29] of 24.8% and an Activity [30] of 85.45%.

Work on `CC(=O)O[C@@]12C[C@@H](C)[C@@]3(O)[C@@H](C=C(CO)C[C@]4(O)C(=O)C(C)=C[C@@H]34)[C@@H]1C2(C)C` [PROSTRATIN] yielded an EC50 [31] of 7.1 µM, an EC50 [32] of 8 µM and an EC50 [33] of 0.2 µM. The EC50 [34] was 0.5 µM, the EC50 [35] was 0.2 µM and the EC50 [36] was 0.3 µM. It also gave an EC50 [37] of 0.4 µM and an EC50 [38] of 7.6 µM.

`O=C(O[C@@H]1Cc2c(O)cc(O)cc2O[C@@H]1c1cc(O)c(O)c(O)c1)c1cc(O)c(O)c(O)c1` [EPIGALOCATECHIN GALLATE] gave an EC50 [39] of 6.54 µg/mL (≈ 14.3 µM).
